In patent US20250215012A1, “IKZF2 DEGRADERS AND USES THEREOF” (REGENTS OF THE UNIVERSITY OF MICHIGAN, priority 2022, published 2025):

Molecular target: IKZF2 (Homo sapiens (Human), UniProt Q96SW2+Q9UKS7)
Assay: IKZF2 HiBiT Assay (Jurkat-IKZF2-HiBiT cell line)
Type: cell-based
Settings: Jurkat-IKZF2-HiBiT cells, 24 hours; for DC50: read-out: HiBit assay degradation analysis DC50; for Dmax: read-out: HiBit assay degradation analysis Dmax
Procedure, shortened: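 Jurkat cells carrying HiBiT-tagged IKZF2 were exposed to serially diluted compound for 24 h at 37 °C. Remaining IKZF2 was measured by Nano-Glo HiBiT lytic luminescence after 10-20 min at room temperature. Signal was normalized to DMSO, and IC50 came from a four-parameter variable-slope fit.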

IKZF2, sequence (Q9UKS7 whole entry): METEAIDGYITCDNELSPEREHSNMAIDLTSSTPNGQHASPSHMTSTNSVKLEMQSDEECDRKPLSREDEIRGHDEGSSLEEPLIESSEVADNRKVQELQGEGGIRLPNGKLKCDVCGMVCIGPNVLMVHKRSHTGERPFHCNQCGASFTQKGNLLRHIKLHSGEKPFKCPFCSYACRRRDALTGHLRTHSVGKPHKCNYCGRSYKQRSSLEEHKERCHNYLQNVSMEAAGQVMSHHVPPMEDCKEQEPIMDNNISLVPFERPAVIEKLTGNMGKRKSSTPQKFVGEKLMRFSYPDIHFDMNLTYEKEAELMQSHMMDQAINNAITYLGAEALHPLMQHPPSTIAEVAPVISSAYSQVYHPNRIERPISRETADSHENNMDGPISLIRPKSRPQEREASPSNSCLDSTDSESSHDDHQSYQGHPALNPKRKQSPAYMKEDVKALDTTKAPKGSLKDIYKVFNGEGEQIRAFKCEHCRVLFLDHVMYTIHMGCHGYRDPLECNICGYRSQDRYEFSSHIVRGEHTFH
IKZF2, sequence (Q96SW2 whole entry): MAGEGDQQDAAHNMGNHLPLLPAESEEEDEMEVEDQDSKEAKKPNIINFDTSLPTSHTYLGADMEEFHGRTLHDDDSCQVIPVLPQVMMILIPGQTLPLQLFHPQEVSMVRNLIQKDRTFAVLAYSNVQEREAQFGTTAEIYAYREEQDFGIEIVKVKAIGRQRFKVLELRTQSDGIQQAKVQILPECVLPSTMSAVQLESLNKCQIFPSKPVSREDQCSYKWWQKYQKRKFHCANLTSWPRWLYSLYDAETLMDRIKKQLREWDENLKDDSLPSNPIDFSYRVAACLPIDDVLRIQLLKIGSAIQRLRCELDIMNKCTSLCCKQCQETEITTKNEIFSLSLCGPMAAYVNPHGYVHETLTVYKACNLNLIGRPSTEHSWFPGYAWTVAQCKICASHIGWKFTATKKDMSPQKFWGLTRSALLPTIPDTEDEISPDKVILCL
IKZF2, sequence (Q16531 whole entry partner): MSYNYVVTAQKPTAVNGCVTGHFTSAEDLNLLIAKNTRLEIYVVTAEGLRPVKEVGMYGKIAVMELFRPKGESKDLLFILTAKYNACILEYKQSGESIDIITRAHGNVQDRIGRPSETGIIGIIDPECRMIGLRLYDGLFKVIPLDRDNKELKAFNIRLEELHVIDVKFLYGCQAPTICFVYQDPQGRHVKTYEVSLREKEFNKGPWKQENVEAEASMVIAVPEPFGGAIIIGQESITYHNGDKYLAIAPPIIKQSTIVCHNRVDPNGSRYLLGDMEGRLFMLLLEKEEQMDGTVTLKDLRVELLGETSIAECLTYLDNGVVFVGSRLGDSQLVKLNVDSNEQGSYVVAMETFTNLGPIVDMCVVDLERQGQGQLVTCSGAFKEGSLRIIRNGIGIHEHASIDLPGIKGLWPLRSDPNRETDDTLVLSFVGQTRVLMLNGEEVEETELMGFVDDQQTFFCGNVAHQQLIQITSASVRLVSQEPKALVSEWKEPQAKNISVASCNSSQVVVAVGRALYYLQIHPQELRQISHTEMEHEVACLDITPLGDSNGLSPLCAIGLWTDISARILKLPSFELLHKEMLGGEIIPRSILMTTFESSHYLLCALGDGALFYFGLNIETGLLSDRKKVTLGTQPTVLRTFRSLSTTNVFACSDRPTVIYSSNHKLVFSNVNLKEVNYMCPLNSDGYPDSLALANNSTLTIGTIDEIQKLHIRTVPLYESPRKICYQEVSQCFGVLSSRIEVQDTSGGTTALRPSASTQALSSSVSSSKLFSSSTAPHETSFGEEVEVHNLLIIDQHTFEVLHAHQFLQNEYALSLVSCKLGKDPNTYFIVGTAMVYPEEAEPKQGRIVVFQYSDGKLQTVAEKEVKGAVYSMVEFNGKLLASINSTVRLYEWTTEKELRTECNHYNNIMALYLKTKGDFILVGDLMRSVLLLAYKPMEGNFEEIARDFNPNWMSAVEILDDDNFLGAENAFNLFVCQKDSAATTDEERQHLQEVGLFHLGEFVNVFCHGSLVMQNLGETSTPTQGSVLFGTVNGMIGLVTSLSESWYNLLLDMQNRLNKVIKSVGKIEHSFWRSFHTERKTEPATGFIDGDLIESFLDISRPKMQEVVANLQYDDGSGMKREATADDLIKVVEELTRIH

SMILES | DC50 | Dmax
O=C1CCC(N2Cc3c(ccc4c3OCC43CCN(Cc4ccc5c(c4)NC(=O)CO5)CC3)C2=O)C(=O)N1 (stereo not shown) [Compound A153, 3-(6-oxo-1′-((3-oxo-3,4-dihydro-2H-benzo[b][1,4]oxazin-6-yl)methyl)-6,8-dihydro-2H,7H-spiro[furo[2,3-e]isoindole-3,4′-piperidin]-7-yl)piperidine-2,6-dione] | 50 to 200 nM | 60 to 80%
O=C1CCC(N2Cc3c(ccc4c3OCC43CCN(C[C@H]4C[C@H](Oc5ccc(F)cc5)C4)CC3)C2=O)C(=O)N1 (stereo partly shown) [Compound A356, 3-(1′-(((1r,3r)-3-(4-fluorophenoxy)cyclobutyl)methyl)-6-oxo-6,8-dihydro-2H,7H-spiro[furo[2,3-e]isoindole-3,4′-piperidin]-7-yl)piperidine-2,6-dione] | > 500 nM | –
O=C1CCC(N2Cc3c(ccc4c3OCC43CCN(Cc4cnn(S(=O)(=O)c5ccccc5)c4)CC3)C2=O)C(=O)N1 (stereo not shown) [Compound A336, 3-(6-oxo-1′-((1-(phenylsulfonyl)-1H-pyrazol-4-yl)methyl)-6,8-dihydro-2H,7H-spiro[furo[2,3-e]isoindole-3,4′-piperidin]-7-yl)piperidine-2,6-dione] | > 500 nM | 40 to 60%
O=C1CCC(N2Cc3c(ccc4c3OCC43CCN(Cc4nn(CC5COCCO5)c5ccccc45)CC3)C2=O)C(=O)N1 (stereo not shown) [Compound A328, 3-(1′-((1-((1,4-dioxan-2-yl)methyl)-1H-indazol-3-yl)methyl)-6-oxo-6,8-dihydro-2H,7H-spiro[furo[2,3-e]isoindole-3,4′-piperidin]-7-yl)piperidine-2,6-dione] | < 50 nM | 60 to 80%
Cn1cc(-c2cccc(CN3CCC4(CC3)OCc3c4ccc4c3CN(C3CCC(=O)NC3=O)C4=O)c2)cn1 (stereo not shown) [Compound A259, 3-(1′-(3-(1-methyl-1H-pyrazol-4-yl)benzyl)-6-oxo-6,8-dihydrospiro[furo[3,4-e]isoindoline-3,4′-piperidin]-7(1H)-yl)piperidine-2,6-dione] | > 500 nM | 40 to 60%
N#Cc1ccc(CN2CCC3(CC2)COc2c3ccc3c2CN(C2CCC(=O)NC2=O)C3=O)cc1 (stereo not shown) [Compound A195, 4-((7-(2,6-dioxopiperidin-3-yl)-6-oxo-7,8-dihydro-2H,6H-spiro[furo[2,3-e]isoindole-3,4′-piperidin]-1′-yl)methyl)benzonitrile] | > 500 nM | < 40%
O=C1CCC(N2Cc3c(ccc4c3OCC43CCN(Cc4cccc(CF)c4)CC3)C2=O)C(=O)N1 (stereo not shown) [Compound A93, 3-(1′-(3-(fluoromethyl)benzyl)-6-oxo-6,8-dihydro-2H,7H-spiro[furo[2,3-e]isoindole-3,4′-piperidin]-7-yl)piperidine-2,6-dione] | 50 to 200 nM | 60 to 80%
O=C1CCC(N2Cc3c(ccc4c3OCC43CCN(Cc4ccc5nn(CCO)cc5c4)CC3)C2=O)C(=O)N1 (stereo not shown) [Compound A345, 3-(1′-((2-(2-hydroxyethyl)-2H-indazol-5-yl)methyl)-6-oxo-6,8-dihydro-2H,7H-spiro [furo[2,3-e]isoindole-3,4′-piperidin]-7-yl)piperidine-2,6-dione] | > 500 nM | < 40%
O=C1CCC(N2Cc3c(ccc4c3OCC43CCN(Cc4cccc5ccncc45)CC3)C2=O)C(=O)N1 (stereo not shown) [Compound A40, 3-(1′-(isoquinolin-8-ylmethyl)-6-oxo-6,8-dihydro-2H,7H-spiro[furo[2,3-e]isoindole-3,4′-piperidin]-7-yl)piperidine-2,6-dione] | 50 to 200 nM | 60 to 80%
O=C1CCC(N2Cc3c(ccc4c3OCC43CCN(Cc4ccc(F)cc4Cl)CC3)C2=O)C(=O)N1 (stereo not shown) [Compound A6, 3-(1′-(2-chloro-4-fluorobenzyl)-6-oxo-6,8-dihydro-2H,7H-spiro[furo[2,3-e]isoindoline-3,4′-piperidin]-7-yl)piperidine-2,6-dione] | > 500 nM | < 40%
